According to ChEMBL document CHEMBL1149830, “Kadsuracoccinic acids A-C, ring-A seco-lanostane triterpenes from Kadsura coccinea and their effects on embryonic cell division of Xenopus laevis” (J Nat Prod, 2008):
pIC50: −log10 of the molar value.

Columns and labels:
[1] = Growth inhibition of embryonic cells of stage 8 Xenopus laevis blastulae at 10 ug/mL; format: functional; conditions: Blastula stage
[2] = Induction of cleavage arrest in embryonic cells of stage 8 Xenopus laevis blastulae; format: functional, cell-based; conditions: Blastula
[3] = Induction of cleavage arrest in embryonic cells of stage 8 Xenopus laevis blastulae at 1 ug/mL; format: functional, Blastula

Row | Compound | inhibition at 10 µg/mL [1] [%] | pIC50 [2] | Activity [3] [%]
1 | O=c1[nH]cc(F)c(=O)[nH]1 [FLUOROURACIL] | 47 | 4.57 | –
2 | C=C(C)[C@@H]1CC[C@@H]2C(=CC[C@]3(C)/C(=C(/C)CC/C=C(/C)C(=O)O)CC[C@@]23C)[C@@]1(C)CCC(=O)O [KADSURACOCCINIC ACID A] | – | 6.17 | 85
